In US8957098B2 (ALGIAX Pharmaceuticals GmbH, priority 2010, dated 2015):

Experiments:
[1] = tested on: severe spinal cord contusion injury in the rat; assay: BBB open field locomotor rating scale after severe spinal cord contusion injury; format: in vivo; settings: Example 2; 20 mg/kg/day by gavage for 7 days; effect distinct from DPO 7 to DPO 63 (ANOVA-RM p=0.002); vehicle 8.3
Protocol: The BBB score is scaled from 0 to 21 points, a BBB score of 0 represents a complete paralysis of the hind limbs and a BBB score of 21 represents normal locomotion. […]
The BBB locomotor rating scale was used according to the present disclosure to assess general locomotor performance. The score was assessed before injury and at 1, 3, 5, 7, 14, 21, 35, 42, 49, 56 and 63 days post operation (dpo) by 2 blinded observers.

[2] = tested on: severe spinal cord contusion injury in the rat; assay: Explorative rearing test after severe spinal cord contusion injury; format: in vivo; settings: Example 1; 20 mg/kg/day by gavage for 7 days
Protocol: Thirteen week-old female Lewis rats (Charles River, Sulzfeld Germany) were housed under a 12:12 h dark/light regime and allowed free access to water and food. After one week of habituation the animals underwent general anesthesia with a mixture of isoflurane and air (induction: 5% isoflurane, maintenance: 2.2% isofluorane). A Th10 laminectomy was performed without rupturing the dura and a severe contusive SCI (25 gem NYU/MASCIS II impactor) {Gruner, 1992 #3} was induced. After suturing muscle and skin, a subcutaneous (s.c.) injection of 5 ml of Ringers Lactate was given. Bladders were emptied manually 2 times a day until spontaneous voiding returned (usually within 1 week). The lesion severity was verified by the impact velocity and contusion depth of the impactor rod. Animals with an impact velocity error >5% were excluded from further analysis. After injury, individual rats were randomly assigned into a treatment group. The following groups were used:
When placed in a Plexiglas cylinder (18 cm diameter×35.0 cm height), animals spontaneously rear and contact the walls with their forepaws. Numbers, duration and types of rears were analyzed during the 3-min recorded observation period in the cylinder (Himes et al., 2006; Shumsky et al., 2003). A mirror was placed at an angle behind the cylinder so that the forelimbs could be viewed at all times. The testing session was videotaped, and rearing behaviour was scored blindly at a later date.
Different types of rears of increasing heights were observed: • LEVEL 1: Crouch—Animals lifted both forepaws off the ground up to 10 cm; • LEVEL 2: Rear—Animals reared and extended the trunk with the hindlimbs flexed reaching a height between 10 and 15 cm; • LEVEL 3: Stand—Animals reared and extended the trunk with the hindlimbs extended reaching a height over 15 cm.
Occasionally an animal progressed through several types of rears before touching down, in which case the time the animal spend in each rearing height was measured by counting the single video frames. […]

Cc1cc(NC(=O)/C(C#N)=C(\O)C2CC2)ccc1C(F)(F)F [HR325, 1(3-methyl-4-trifluoromethylphenyl-carbamoyl)-2-cyclopropyl-2oxo-propionitrile]
BBB score at steady state [1]: around 10

Cc1oncc1C(=O)Nc1ccc(C(F)(F)F)cc1 [Leflunomide, N-(4-trifluoromethylphenyl)-5-methylisoxazol-4-carboxamide]
exploring time of healthy control animals at LEVEL 3 (>15 cm) compared with treated animals [2]: significantly longer
rearing attempts (time and height reached by forepaws) vs vehicle control animals [2]: longer in time and that the forepaws reached higher levels
significantly less time in LEVEL 2 (10-15 cm) when compared to healthy control animals [2]: this is not the case
